Measured values from patent US12649750B2, “Macrocyclic compounds, compositions, and methods of using thereof” (Sionna Therapeutics Inc., priority 2022, dated 2026).

Each compound was assayed against T1, NBD1 (Homo sapiens, UniProt P13569) (assay: Aggregation analysis using differential static light scattering (DSLS), thermal stability of NBD1 (ΔTagg)). Settings: ΔTagg versus DMSO control, NBD1 0.2 mg/ml.
T1 construct: Purified recombinant NBD1 was produced using previously described methods; made in house
T1 sequence (P13569 423-646 limits assumed): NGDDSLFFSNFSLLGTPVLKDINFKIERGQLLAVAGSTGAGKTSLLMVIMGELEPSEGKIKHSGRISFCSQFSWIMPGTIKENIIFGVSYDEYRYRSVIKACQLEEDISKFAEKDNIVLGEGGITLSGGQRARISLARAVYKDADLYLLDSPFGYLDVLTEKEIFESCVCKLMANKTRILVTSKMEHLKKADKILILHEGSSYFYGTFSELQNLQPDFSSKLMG
Assay type: binding
Procedure, shortened: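 Purified recombinant NBD1 at 0.2 mg/ml in Tris buffer pH7.6 with 2 mM ATP, 5 mM MgCl2, 2 mM DTT and 1% glycerol was mixed with DMSO-dissolved compounds under mineral oil. Plates were heated at 1° C. per minute to 70° C., light scattering imaged every 0.5° C.; Tagg from curve inflection, minus DMSO-control mean.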
Cn1nc2nc1-c1cc(ccn1)S(=O)(=O)c1c(F)c(F)c3[nH]ccc3c1CCS(=O)(=O)CC(C)(C)CCC[C@]2(C)c1cccc(CC(C)(C)C(=O)O)c1 [Compound 352, 3-[3-[(6R)-21,22-Difluoro-3,6,10,10-tetramethyl-12,12,24,24-tetraoxo-12λ6,24λ6-dithia-3,4,19,28,30-pentazapentacyclo[23.3.1.12,5.015,23.016,20]triaconta-1(29),2(30),4,15,17,20,22,25,27-nonaen-6-yl]phenyl]-2,2-dimethyl-propanoic Acid] was tested, and the “DSLS 3D (100 μM ΔT)” value was “A (an ΔTagg value less than or equal to 5 °C is marked “A”)”. With C[C@@H](Cc1cccc([C@@]2(C)CCCC(C)(C)CS(=O)(=O)CCc3c[nH]c4c(F)c(F)c(cc34)Oc3ccc(F)c(c3)-c3nc2nn3C)c1)C(=O)O [Compound 353, (2S)-2-Methyl-3-[3-[(12R)-6,25,26-trifluoro-9,12,16,16-tetramethyl-18,18-dioxo-2-oxa-18λ6-thia-9,10,23,29-tetrazapentacyclo[19.5.2.13,7.18,11.024,28]triaconta-1(26),3,5,7(30),8(29),10,21,24,27-nonaen-12-yl]phenyl]propanoic Acid] the “DSLS 3D (100 μM ΔT)” value was “A (an ΔTagg value less than or equal to 5 °C is marked “A”)”. With COC(=O)[C@@H](C)Cc1cccc([C@@]2(C)CCCC(C)(C)CS(=O)(=O)CCc3c[nH]c4cc(F)c(cc34)Sc3ccc(F)c(c3)-c3nc2nn3C)c1 [Compound 354, Methyl (2S)-3-[3-[(12R)-6,26-difluoro-9,12,16,16-tetramethyl-18,18-dioxo-2,18λ6-dithia-9,10,23,29-tetrazapentacyclo[19.5.2.13,7.18,11.024,28]triaconta-1(26),3,5,7(30),8(29),10,21,24,27-nonaen-12-yl]phenyl]-2-methyl-propanoate] the “DSLS 3D (100 μM ΔT)” value was “A (an ΔTagg value less than or equal to 5 °C is marked “A”)”. With C[C@@H](Cc1cccc([C@@]2(C)CCCC(C)(C)CS(=O)(=O)CCc3c[nH]c4cc(F)c(cc34)[S+]([O-])c3ccc(F)c(c3)-c3nc2nn3C)c1)C(=O)O (some centres unmarked) [Compound 355] the “DSLS 3D (100 μM ΔT)” value was “A (an ΔTagg value less than or equal to 5 °C is marked “A”)”. C[C@H](Cc1cccc([C@@]2(C)CCCC(C)(C)CS(=O)(=O)CCc3c(ncc4[nH]ccc34)Oc3ccc(F)c(c3)-c3nc2nn3C)c1)C(=O)O [Compound 356, (2R)-3-[3-[(6R)-28-Fluoro-3,6,10,10-tetramethyl-12,12-dioxo-24-oxa-12λ6-thia-3,4,19,22,30-pentazapentacyclo[23.3.1.12,5.015,23.016,20]triaconta-1(29),2(30),4,15,17,20,22,25,27-nonaen-6-yl]phenyl]-2-methyl-propanoic acid] was tested, and the “DSLS 3D (100 μM ΔT)” value was “A (an ΔTagg value less than or equal to 5 °C is marked “A”)”. With C[C@@H](Cc1cccc([C@@]2(C)CCCC(C)(C)CS(=O)(=O)CCc3c(c(F)cc4[nH]ccc34)S(=O)(=O)c3cccc(c3)-c3nc2nn3C)c1)C(=O)O [Compound 357, (2S)-3-[3-[(6R)-22-Fluoro-3,6,10,10-tetramethyl-12,12,24,24-tetraoxo-12λ6,24λ6-dithia-3,4,19,30-tetrazapentacyclo[23.3.1.12,5.015,23.016,20]triaconta-1(29),2(30),4,15,17,20,22,25,27-nonaen-6-yl]phenyl]-2-methyl-propanoic Acid] the “DSLS 3D (100 μM ΔT)” value was “B (a value above 5 °C and less than or equal to 10 °C is marked “B”)”. In the case of Cn1nc2nc1-c1cc(ccc1F)S(=O)(=O)c1c(F)c(F)c3[nH]ccc3c1CCS(=O)(=O)CC(C)(C)CCC[C@]2(C)c1cccc(CC(C)(C)C(=O)O)c1 [Compound 358, 2,2-Dimethyl-3-[3-[(6R)-21,22,28-trifluoro-3,6,10,10-tetramethyl-12,12,24,24-tetraoxo-12λ6,24λ6-dithia-3,4,19,30-tetrazapentacyclo[23.3.1.12,5.015,23.016,20]triaconta-1(29),2(30),4,15,17,20,22,25,27-nonaen-6-yl]phenyl]propanoic Acid], the “DSLS 3D (100 μM ΔT)” value is reported as “A (an ΔTagg value less than or equal to 5 °C is marked “A”)”. For C[C@@H](Cc1cccc([C@@]2(C)CCCC(C)(C)CS(=O)(=O)CCc3c(c(F)cc4[nH]ncc34)Oc3ccc(F)c(c3)-c3nc2nn3C)c1)C(=O)O [Compound 359, (2S)-3-[3-[(6R)-22,28-Difluoro-3,6,10,10-tetramethyl-12,12-dioxo-24-oxa-12λ6-thia-3,4,18,19,30-pentazapentacyclo[23.3.1.12,5.015,23.016,20]triaconta-1(29),2(30),4,15,17,20,22,25,27-nonaen-6-yl]phenyl]-2-methyl-propanoic Acid], the “DSLS 3D (100 μM ΔT)” value was “B (a value above 5 °C and less than or equal to 10 °C is marked “B”)”. For CNC1CS(=O)(=O)CC(C)(C)CCC[C@](C)(c2cccc(C[C@@H](C)C(=O)O)c2)c2nc(n(C)n2)-c2cc(ccc2F)Oc2c(F)c(F)c3[nH]ccc3c21 (stereo partly drawn) [Compound 360D, (2R)-2-Methyl-3-[3-[(6R)-21,22,28-trifluoro-3,6,10,10-tetramethyl-14-(methylamino)-12,12-dioxo-24-oxa-12λ6-thia-3,4,19,30-tetrazapentacyclo[23.3.1.12,5.015,23.016,20]triaconta-1(29),2(30),4,15,17,20,22,25,27-nonaen-6-yl]phenyl]propanoic Acid], the “DSLS 3D (100 μM ΔT)” value was “A (an ΔTagg value less than or equal to 5 °C is marked “A”)”. For Cn1nc2nc1-c1cc(ccc1F)Oc1c(F)c(F)c3[nH]cc(CC(=O)O)c3c1CCS(=O)(=O)CC(C)(C)CCC[C@]2(C)c1ccccc1 [Compound 361, 2-[(6R)-21,22,28-Trifluoro-3,6,10,10-tetramethyl-12,12-dioxo-6-phenyl-24-oxa-12λ6-thia-3,4,19,30-tetrazapentacyclo[23.3.1.12,5.015,23.016,20]triaconta-1(29),2(30),4,15,17,20,22,25,27-nonaen-17-yl]acetic Acid], the “DSLS 3D (100 μM ΔT)” value was “A (an ΔTagg value less than or equal to 5 °C is marked “A”)”. Cn1nc2nc1-c1cc(ccn1)Sc1c(F)cc3[nH]cc(CC(=O)O)c3c1CCS(=O)(=O)CC(C)(C)CCC[C@]2(C)c1ccccc1 [Compound 362, 2-[(6R)-22-Fluoro-3,6,10,10-tetramethyl-12,12-dioxo-6-phenyl-12λ6,24-dithia-3,4,19,28,30-pentazapentacyclo[23.3.1.12,5.015,23.016,20]triaconta-1(29),2(30),4,15,17,20,22,25,27-nonaen-17-yl]acetic Acid] was tested, and the “DSLS 3D (100 μM ΔT)” value was “A (an ΔTagg value less than or equal to 5 °C is marked “A”)”. In the case of Cn1nc2nc1-c1cc(ccn1)Oc1c(F)c(F)c3[nH]cc(CC(=O)O)c3c1CCS(=O)(=O)CC(C)(C)CCC[C@]2(C)c1ccccc1 [Compound 363, 2-[(6R)-21,22-Difluoro-3,6,10,10-tetramethyl-12,12-dioxo-6-phenyl-24-oxa-12λ6-thia-3,4,19,28,30-pentazapentacyclo[23.3.1.12,5.015,23.016,20]triaconta-1(29),2(30),4,15,17,20,22,25,27-nonaen-17-yl]acetic acid], the “DSLS 3D (100 μM ΔT)” value is reported as “A (an ΔTagg value less than or equal to 5 °C is marked “A”)”. With Cn1nc2nc1-c1cc(ccn1)Cc1c(F)cc3[nH]cc(CC(=O)O)c3c1CCS(=O)(=O)CC(C)(C)CCC[C@]2(C)c1ccccc1 [Compound 364, 2-[(6R)-22-Fluoro-3,6,10,10-tetramethyl-12,12-dioxo-6-phenyl-12λ6-thia-3,4,19,28,30-pentazapentacyclo[23.3.1.12,5.015,23.016,20]triaconta-1(29),2(30),4,15,17,20,22,25,27-nonaen-17-yl]acetic Acid] the “DSLS 3D (100 μM ΔT)” value was “A (an ΔTagg value less than or equal to 5 °C is marked “A”)”. For Cn1nc2nc1-c1cc(ccn1)S(=O)(=O)c1c(F)cc3[nH]cc(CC(=O)O)c3c1CCS(=O)(=O)CC(C)(C)CCC[C@]2(C)c1ccccc1 [Compound 366, 2-[(6R)-22-Fluoro-3,6,10,10-tetramethyl-12,12,24,24-tetraoxo-6-phenyl-12λ6,24λ6-dithia-3,4,19,28,30-pentazapentacyclo[23.3.1.12,5.015,23.016,20]triaconta-1(29),2(30),4,15,17,20,22,25,27-nonaen-17-yl]acetic acid], the “DSLS 3D (100 μM ΔT)” value was “A (an ΔTagg value less than or equal to 5 °C is marked “A”)”. For COc1c(CCC(=O)O)cccc1C1(C)CCCC(C)(C)CS(=O)(=O)CCc2c(c(F)c(F)c3[nH]ccc23)Oc2ccc(F)c(c2)-c2nc1nn2C (centres unmarked) [Compound 373, 3-[2-Methoxy-3-(21,22,28-trifluoro-3,6,10,10-tetramethyl-12,12-dioxo-24-oxa-12λ6-thia-3,4,19,30-tetrazapentacyclo[23.3.1.12,5.015,23.016,20]triaconta-1(29),2(30),4,15,17,20,22,25,27-nonaen-6-yl)phenyl]propanoic Acid], the “DSLS 3D (100 μM ΔT)” value was “B (a value above 5 °C and less than or equal to 10 °C is marked “B”)”. With COC(=O)[C@H](C)Cc1cccc([C@@]2(C)CCCC(C)(C)CS(=O)(=O)CCc3c(c(F)cc4[nH]ccc34)Sc3cc(c(F)cc3O)-c3nc2nn3C)c1 [Compound 376, Methyl (2R)-3-[3-[(6R)-22,28-difluoro-26-hydroxy-3,6,10,10-tetramethyl-12,12-dioxo-12λ6,24-dithia-3,4,19,30-tetrazapentacyclo[23.3.1.12,5.015,23.016,20]triaconta-1(29),2(30),4,15,17,20,22,25,27-nonaen-6-yl]phenyl]-2-methyl-propanoate] the “DSLS 3D (100 μM ΔT)” value was “A (an ΔTagg value less than or equal to 5 °C is marked “A”)”. In the case of C[C@H](Cc1cccc([C@@]2(C)CCCC(C)(C)CS(=O)(=O)CCc3c(c(F)cc4[nH]ccc34)Sc3cc(c(F)cc3N)-c3nc2nn3C)c1)C(=O)O [Compound 377, (2R)-3-[3-[(6R)-26-Amino-22,28-difluoro-3,6,10,10-tetramethyl-12,12-dioxo-12λ6,24-dithia-3,4,19,30-tetrazapentacyclo[23.3.1.12,5.015,23.016,20]triaconta-1(29),2(30),4,15,17,20,22,25,27-nonaen-6-yl]phenyl]-2-methyl-propanoic Acid], the “DSLS 3D (100 μM ΔT)” value is reported as “B (a value above 5 °C and less than or equal to 10 °C is marked “B”)”.
